Measurements: patent US5574071A, “Method of lowering cholesterol” (Hoffmann-La Roche Inc., priority 1993, dated 1996)
Structures can show the parent of a compound that is named as a salt.

tested on: LDL receptor in human hepatoma cells (Hep G2); assay: Inhibition of cholesterol synthesis in human hepatoma cells (Hep G2), determined by stimulation of LDL receptors (ELISA, C7-LDL antibody); type: cell-based; details: HepG2, Table B, versus untreated cells, read-out: EC50 (concentration which increases the activity of the LDL receptor by 50% in comparison to the control)
Protocol: Thus, the inhibition of cholesterol :synthesis in human hepatoma cells (Hep G2) was determined on the basis of the stimulation of the LDL receptors induced in parallel. The cells were placed in microtitre plates and treated with the cholesterol synthesis inhibitor. The concentration of the LDL receptor is measured by ELISA methodology, with the C7-LDL antibody being used as the primary antibody. The EC50 values in nM/I in Table B hereinafter correspond to the concentration of cholesterol synthesis inhibitor which increases the activity of the receptor by 50% in comparison to the control, that is, untreated cells.

Structure (SMILES)	EC50 [µM]
C=CCN(C)C/C=C/COc1ccc(CC(=O)c2ccc(Br)cc2)cc1 [Example 9r, (E)-2-[4-[4-(allyl-methyl-amino)-but-2-enyloxy)-phenyl]-1-(4-bromo-phenyl)-ethanone]	0.222
C=CCN(C)C/C=C/COc1ccc(C(=O)CCCC(C)C)cc1 [Example 9g, (E)-I -[4-[4-(allyl-methyl-amino)-but-2-enyloxy]-phenyl]-5-methyl-hexan-l-one]	0.177
C=CCN(C)C/C=C/COc1ccc(C(=O)c2ccc(C#N)cc2)cc1F [Example 9j, (E)-[4-[4-(allyl-methyl-amino)-but-2-enyloxy]-3-fluoro-benzoyl]-benzonitrile]	0.019
C=CCN(C)C/C=C/COc1ccc(C(=O)c2ccc(Br)cc2)cc1F [Example 9f, (E)-[4-[4-(allyl-methyl-amino)-but-2-enyloxy]-3-fluoro-phenyl]-(4-bromo-phenyl)-methanone]	0.01
C=CCN(C)C/C=C/COc1ccc(CC(=O)CCC=C(C)C)cc1F [Example 9p, (E)-1-[4-[4-(allyl-methylamino)-but-2-enyloxy]-3-fluoro-phenyl]-6-methyl-hept-5-en-2-one]	0.098
CCN(C)C/C=C/COc1ccc(C(=O)c2ccc(Br)cc2)cc1 [Example 9s, (E)-(4-bromo-phenyl)-[4-[4-(ethyl-methyl-amino)-but-2-enyloxy]-phenyl]-methanone hydrobromide]	0.122
C=CCN(C)CCCCCCOc1ccc(C(=O)c2ccc(Br)cc2)cc1F [Example 9c, [4-[6-(ally-methyl-amino)-hexyloxy]-3-fluoro-phenyl]-(4-bromo-phenyl)-methanone]	0.203
C=CCN(C)C/C=C/COc1ccc(C(=O)c2c(F)cccc2F)cc1F [Example 9l, (E)-[4-[4-(allyl-methyl-amino)-but-2-enyloxy]-3-fluoro-phenyl]-(2,6-difluoro-phenyl)-methanone]	0.22
C=CCN(C)C/C=C/COc1ccc(C(=O)c2ccc(Br)cc2)c(F)c1 [Example 9n, (E)-[4-[4-(allyl-methyl-amino)-but-2-enyloxy]-2-fluoro-phenyl]-(4-bromo-phenyl)-methanone]	0.133
C=CCN(C)CCCCCCOc1ccc(C(=O)c2ccc(Br)cc2)c(F)c1 [Example 9d, [4-[6-(allyl-methyl-amino)-hexyloxy]-2-fluoro-phenyl]-(4-bromo-phenyl)-methanone]	0.057
C=CCN(C)CC=CCOc1ccc(C(=O)c2ccc(Br)cc2)cc1 [Compound 1, trans-4-[[4-(allymethylamino)-2-butenyl]oxy]-4'-bromo-benzophenone]	0.05
C=CCN(C)C/C=C/COc1ccc(C(=O)c2ccc(I)cc2)cc1 [Example 9h, (E)-[4-[4-(allyl-methyl-amino)-but-2-enyloxy]-phenyl]-(4-iodo-phenyl)-methanone]	0.094
CN(C)Cc1ccc(-c2ccc(C(=O)c3ccc([N+](=O)[O-])cc3Cl)cc2)cc1 [Compound 4, 2-chloro-4-nitrophenyl 4'-[(dimethylamino)methyl]-4-biphenylyl ketone]	0.153
C=CCN(C)CC=CCOc1ccc(C(=O)c2ccc([N+](=O)[O-])cc2)cc1 [Compound 3, trans-4-[[4-(allylmethylamino)-2-butenyl]oxy]-4'-nitro-benzophenone]	0.063
C=CCN(C)CC=CCOc1ccc(C(=O)c2ccc(Cl)cc2Cl)cc1 [Compound 7, trans-4-[[4-(allymethylamino)-2-butenyl]oxy]-2',4'-dichloro-benzophenone]	0.082
C=CCN(C)C/C=C/COc1ccc(C(=O)CCC=C(C)C)cc1 [Example 9m, (E)-I -[4-[4-(allyl-methyl-amino)-but-2-enyloxy]phenyl]-5-methyl-hex-4-en-l-one]	0.034
C=CCN(C)Cc1ccc(-c2ccc(C(=O)c3ccc(C#N)cc3)cc2)cc1 [Compound 2, p-[[4'-[(allylmethylamino)methyl]-4-biphenylyl]carbonyl]-benzonitrile]	0.043
C=CCN(C)CCCCCCOc1ccc(C(=O)c2ccc(Br)cc2)cc1 [Example 9a, [4-[6-(allyl-methyl-amino)-hexyloxy]-phenyl]-(4-bromo-phenyl)-methanone hydrobromide]	0.051

tested on: not listed separately; assay: Toxicity (LD50 per os in the mouse); details: in vivo, po

Structure (SMILES)	LD50 [mg/kg]
CC(C)=CCCC(=O)c1ccc(-c2ccc(CN(C)C)cc2)cc1 [Compound 20]	1250 to 2500
